These results are taken from BindingDB's records for doi:10.1021/jm960124f (1996).

Structures are written as SMILES.

This test addresses Aldo-keto reductase family 1 member A1 (Bos taurus). The experiment in a line: Evaluated for inhibition of Aldehyde reductase 1.
Usually IC50 stands for the concentration that inhibits the measured activity by half. In turn, `O=C(O)CCCn1nc2c(cc1=O)CCc1ccccc1-2` [4-(3-Oxo-5,6-dihydro-3H-benzo[h]cinnolin-2-yl)-butyric acid] yielded a concentration for half-maximal inhibition (IC50) of 92.6 µM.

The compound `O=C(O)Cn1nc2c(cc1=O)Cc1ccccc1-2` [(3-Oxo-3,5-dihydro-indeno[1,2-c]pyridazin-2-yl)-acetic acid] had an IC50 of 107 µM. In the case of `O=C(O)Cn1nc2c(c(C(=O)O)c1=O)Cc1ccccc1-2` [2-Carboxymethyl-3-oxo-3,5-dihydro-2H-indeno[1,2-c]pyridazine-4-carboxylic acid], the IC50 came to 136 µM.

`O=C(O)Cn1nc2c(cc1=O)CCc1ccccc1-2` [(3-Oxo-5,6-dihydro-3H-benzo[h]cinnolin-2-yl)-acetic acid] gave a concentration for half-maximal inhibition (IC50) of 156 µM. For the compound `Cc1cc(C)c2c(c1)-c1nn(CCC(=O)O)c(=O)cc1CC2` [3-(7,9-Dimethyl-3-oxo-5,6-dihydro-3H-benzo[h]cinnolin-2-yl)-propionic acid], the half-maximal inhibitory concentration (IC50) was 289 µM. On to `O=C(O)Cn1nc2c(c(C(=O)O)c1=O)CCc1ccccc1-2` [2-Carboxymethyl-3-oxo-2,3,5,6-tetrahydro-benzo[h]cinnoline-4-carboxylic acid], for which the IC50 amounted to 161 µM.

`Cc1cc(C)c2c(c1)-c1nn(CC(=O)O)c(=O)cc1CC2` [(7,9-Dimethyl-3-oxo-5,6-dihydro-3H-benzo[h]cinnolin-2-yl)-acetic acid] gave an IC50 of 295 µM.
